Article PMC7961048, “Hierarchized phosphotarget binding by the seven human 14-3-3 isoforms” (Nature Communications, 2021)
Starred links: 1 amine or outer side, 2 acyl side, 3 side chain; linkers in the order of their positions; H or OH if unused. Non-standard residues stand in square brackets, D forms with d. Residues, ends and D or L forms follow the SMILES beside them. *: point of attachment. X1 = O=C(CCCC[C@@H]1SC[C@@H]2NC(=O)N[C@@H]21)NCCCOCCOCCOCCCN*; pT = C[C@@H](OP(=O)(O)O)[C@H](N)C(=O)O; Suc = O=C(CCC(=O)[*:2])[*:1]

How the values were obtained:
[1] = biological target: T1, 14-3-3ζ (Homo sapiens, UniProt P63104); experiment: biochemical; format: binding
T1 construct: Plasmids containing the cDNAs of the full-length 14-3-3 isoforms ε, γ, and ζ were received; made in house; host or cells: E. coli BL21(DE3)
T1 sequence (P63104 1-245): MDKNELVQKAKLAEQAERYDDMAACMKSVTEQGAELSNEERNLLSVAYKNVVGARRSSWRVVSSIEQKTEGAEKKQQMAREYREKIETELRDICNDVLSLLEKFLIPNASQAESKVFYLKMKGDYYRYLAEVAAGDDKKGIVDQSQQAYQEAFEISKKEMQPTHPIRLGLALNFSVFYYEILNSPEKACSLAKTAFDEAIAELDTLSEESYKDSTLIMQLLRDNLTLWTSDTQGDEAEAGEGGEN

[2] = biological target: T2, 14-3-3γ (Homo sapiens, UniProt P61981); experiment: biochemical; format: binding
T2 construct: full-length human 14-3-3 constructs with an N-terminal MBP fusion were used; made in house; host or cells: E. coli BL21(DE3)
T2 sequence (P61981 1-247): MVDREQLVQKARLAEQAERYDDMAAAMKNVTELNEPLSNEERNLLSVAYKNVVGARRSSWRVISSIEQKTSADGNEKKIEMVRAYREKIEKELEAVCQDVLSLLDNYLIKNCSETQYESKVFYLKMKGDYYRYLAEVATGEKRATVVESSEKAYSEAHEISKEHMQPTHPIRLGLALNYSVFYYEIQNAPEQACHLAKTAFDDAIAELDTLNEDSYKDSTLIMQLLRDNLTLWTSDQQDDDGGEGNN
Experimental: FP was measured with a PHERAstar (BMG Labtech, Offenburg, Germany) microplate reader by using 485 ± 20 and 528 ± 20 nm band-pass filters (for excitation and emission, respectively). In direct FP measurements, a dilution series of the 14-3-3 protein was prepared in 96-well plates (96-well skirted PCR plate, 4ti-0740, 4titude, Wotton, UK) in a 20 mM HEPES pH 7.5 buffer containing 150 mM NaCl, 0.5 mM TCEP, 0.01% Tween 20, 50 nM fluorescently labeled fpB6 peptide, and 100 μM FSC, if indicated. The volume of the dilution series was 40 μl, which was later divided into three technical replicates of 10 μl upon transferring to 384-well micro-plates (low binding microplate, 384 well, E18063G5, Greiner Bio-One, Kremsmünster, Austria). In total, polarization of the probe was measured at eight different protein concentrations (whereas one contained no protein and corresponded to the free peptide). In competitive FP measurements, the same buffer was supplemented with the protein to achieve a complex formation of 60–80%, based on the direct titration. Then, this mixture was used for creating a dilution series of the unlabeled competitor (i.e., the studied peptides) and the measurement was carried out identically as in the direct experiment.
All FP experiments were done in triplicates. Analysis of FP experiments were carried out using ProFit, an in-house developed, Python-based fitting program. […]

Compound	Kd [1] [µM]	Kd [2] [µM]
CC(C)[C@H](NC(=O)[C@H](CCC(=O)O)NC(=O)[C@@H](NC(=O)[C@H](CCC(=O)O)NC(=O)[C@H](CCCNC(=N)N)NC(=O)[C@H](CCCNC(=N)N)NC(=O)[C@H](CCCNC(=N)N)NC(=O)[C@@H]1CCCN1C(=O)[C@H](CCCCN)NC(=O)[C@H](CO)NC(=O)CCC(=O)NCCCOCCOCCOCCCNC(=O)CCCC[C@@H]1SC[C@@H]2NC(=O)N[C@@H]21)[C@@H](C)OP(=O)(O)O)C(=O)O [pHPV35E6T-6R] ({X1-Suc}-SKPRRRE[pT]EV-OH)	139 ± 21	
CC(C)[C@H](NC(=O)[C@H](C)NC(=O)[C@@H](NC(=O)[C@H](CCC(=O)O)NC(=O)[C@H](CCCNC(=N)N)NC(=O)[C@H](CCCNC(=N)N)NC(=O)[C@@H](NC(=O)[C@@H]1CCCN1C(=O)[C@H](CCCCN)NC(=O)[C@H](CO)NC(=O)CCC(=O)NCCCOCCOCCOCCCNC(=O)CCCC[C@@H]1SC[C@@H]2NC(=O)N[C@@H]21)[C@@H](C)O)[C@@H](C)OP(=O)(O)O)C(=O)O [pHPV35E6E-1A] ({X1-Suc}-SKPTRRE[pT]AV-OH)	17.6	
CC(C)C[C@H](NC(=O)[C@H](CCCNC(=N)N)NC(=O)CCC(=O)NCCCOCCOCCOCCCNC(=O)CCCC[C@@H]1SC[C@@H]2NC(=O)N[C@@H]21)C(=O)N[C@@H](CCC(N)=O)C(=O)N[C@@H](CCCNC(=N)N)C(=O)N[C@@H](CCCNC(=N)N)C(=O)N[C@@H](CCCNC(=N)N)C(=O)N[C@@H](CCC(=O)O)C(=O)N[C@H](C(=O)N[C@@H](CCC(N)=O)C(=O)N[C@H](C(=O)O)C(C)C)[C@@H](C)OP(=O)(O)O [pHPV18E6]	22.4 ± 1.3	
CC(C)C[C@H](NC(=O)[C@H](C)NC(=O)[C@@H](NC(=O)[C@H](CCC(=O)O)NC(=O)[C@H](CCCNC(=N)N)NC(=O)[C@H](CCCNC(=N)N)NC(=O)[C@H](CCCNC(=N)N)NC(=O)[C@H](CO)NC(=O)[C@H](CCCNC(=N)N)NC(=O)[C@H](CO)NC(=O)CCC(=O)NCCCOCCOCCOCCCNC(=O)CCCC[C@@H]1SC[C@@H]2NC(=O)N[C@@H]21)[C@@H](C)OP(=O)(O)O)C(=O)O [pHPV33E6] ({X1-Suc}-SRSRRRE[pT]AL-OH)		2.2 ± 0.3
CC(C)C[C@H](NC(=O)[C@H](CCC(N)=O)NC(=O)[C@@H](NC(=O)[C@H](CCC(=O)O)NC(=O)[C@H](CCCNC(=N)N)NC(=O)[C@H](CCCNC(=N)N)NC(=O)[C@@H](NC(=O)[C@H](CCCNC(=N)N)NC(=O)[C@H](CO)NC(=O)[C@H](CO)NC(=O)CCC(=O)NCCCOCCOCCOCCCNC(=O)CCCC[C@@H]1SC[C@@H]2NC(=O)N[C@@H]21)[C@@H](C)O)[C@@H](C)OP(=O)(O)O)C(=O)O [pHPV16E6]	73.6 ± 19.1	
